This note sets out measurements from article PMC8624457, “Synthesis and Characterization of the Ethylene-Carbonate-Linked L-Valine Derivatives of 4,4-Dimethylcurcumin with Potential Anticancer Activities” (Molecules, 2021).

The nature of data set [1]: Water solubility by LC-MS analysis. It counts as physicochemical. Particulars: for solubility: 25 °C, thermodynamic from solid, room temperature (25 ± 1 °C). The source says: 1-TFA, and 2-TFA with the linkage of L-valine-TFA side chain on either or both of the phenol groups were expected to show an increment of water solubility. We used LC-MS analysis to determine the water solubility of DMCU, 1-TFA, and 2-TFA. Initially, the LC signals detected by ESI+ mode for each compound were assigned as follows: [M + Na]^+ for DMCU, [M + H]^+ for 1-TFA, and [M + 2H]^2+ for 2-TFA (Figure 3A). The extracted ion chromatogram (XIC) was acquired by extracting the m/z signal of 419.1461 for DMCU, 583.2652 for 1-TFA, and 385.1865 for 2-TFA with a tolerance of ±5 ppm for each sample. The retention time of signals obtained from reverse phase liquid chromatography (RPLC) was 5.15 min (DMCU), 3.97 min (1-TFA), and 3.22 min (2-TFA) (Figure 3B). The limit of quantification was 0.16 ng for DMCU (S/N = 375.81) and 1 ng for 1-TFA (S/N = 231.24) or 2-TFA (S/N = 131.19). […] Next, to determine the water solubility of DMCU, 1-TFA and 2-TFA, aqueous solutions of these compounds at different concentrations were prepared for the generation of corresponding calibration curves.
The quantitative analysis was performed using LC-MS and the results were shown in Figure 3C–E. Corresponding saturated water solutions were prepared and then diluted with ultrapure water for LC-MS analysis. […] For the analysis of DMCU water solubility, a clear solution of DMCU in 40% MeOH and 60% water (with a concentration of 1000 ppm) was prepared and divided into four portions. Each part was diluted with an appropriate amount of ultrapure water, resulting in DMCU precipitates, and the precipitates were then removed by centrifugation to give four samples with theoretical concentrations of 0.8, 4, 20, 100 ppm, respectively. The calculated concentrations of these […] samples were decided by comparing the LC-MS signals of corresponding samples to the calibration curves. (Figure 3F). The maximum concentration of DMCU in water was confirmed as 18 ppm at room temperature.
The stock solutions of 1-TFA and 2-TFA were prepared by dissolving 20 mg of 1-TFA and 2-TFA, respectively, in 1 mL of 1% formic acid(aq). The standard solution of 1-TFA or 2-TFA of 0.5, 1.25, 2.5, 5 and 12.5 μg/mL was prepared by diluting the aforementioned stock solution with an adequate amount of 40% methanol in ultrapure water. The stock solution of DMCU was prepared by dissolving 10 mg of DMCU in 1 mL of methanol. The DMCU stock solution was diluted with 40% methanol in ultrapure water to afford three standard solutions with concentrations of 0.08, 0.4, and 2 μg/mL.
The saturated aqueous solutions of compound 1-TFA and 2-TFA were prepared by a three-steps sequence including supersaturated solution preparation (addition of 20 mg compounds into 50 μL ultrapure water), centrifugation (10 min at 14,000× g), and collection of the resulting supernatants to afford the desired solutions. The saturated aqueous solutions were then diluted by ultrapure water as the ratio of 1 to 100,000 for LC-MS analysis.
The LC-MS system consisted of an ultraperformance liquid chromatography (UPLC) system (ACQUITY UPLC I-Class, Waters, Milford, MA, USA and an ESI/APCI source of 4 kDa quadrupole time-of-flight mass spectrometer (Waters VION, Waters, Milford, MA, USA). A BEH C18 column (2.1 × 100 mm, Walters, Milford, MA, USA) was equipped to perform chromatographic separation. The flow rate of 0.2 mL/min with a column temperature of 35 °C was set for each sample injection. The elution started with 60% mobile phase A (ultrapure water + 0.1% formic acid) and 40% mobile phase B (100% methanol + 0.1% formic acid), then held at 40% B for 0.5 min, raised to 95% B in 5.5 min, held at 95% B for 1 min, and then lowered to 40% B in 1 min. The column was equilibrated by pumping 40% B for 4 min. […]

Another data set deals with A549. Nature of the data set: In vitro antiproliferative MTT assay. The following applies: Homo sapiens, A549, 72 h, mean ± SD. The class given is cell-based. Here is the method: (§1) Human NSCLC cell lines (NCI-H460, NCI-H358 and A549) were obtained from ATCC. All cell lines were grown in RPMI medium supplemented with 10% fetal bovine serum (FBS) and antibiotics and incubated at 37 °C in a humidified atmosphere with 5% CO2.
(§2) Antiproliferative activities to various compounds was assessed using MTT assay. In brief, 2000–5000 cells were seeded in each well of 96-well plates and incubated at 37 °C overnight before drug treatment. After a three-day drug treatment, MTT solution was added to each well and the plates were further incubated at 37 °C for 6 h. Measurement of cell viability was assessed by absorbance at 570 nm. The IC50 values for each drug were determined using CompuSyn software based on the median-effect principle and plot.

In another data set the test system is NCI-H460. Nature of the data set: In vitro antiproliferative MTT assay. Particulars: Homo sapiens, NCI-H460, 72 h, mean ± SD. It counts as cell-based. The protocol: as §1, §2
On the technique in general: Tetrazolium dyes change colour on reduction, which living cells bring about.

The test system of a further data set is NCI-H358. Nature of the data set: In vitro antiproliferative MTT assay. It counts as cell-based. Particulars: Homo sapiens, NCI-H358, 72 h, mean ± SD. The protocol:
as §1, §2

Converted amounts (≈) assume the structure as drawn. “And” between values parts separate entries of the source, which are not always exact repeats. Equal values may be shown once. Where a name gives a salt, the structure may show the parent alone.

A word on the solubility: it is the concentration that dissolves in the medium under given conditions. Read a low solubility as a poorly soluble substance. As a reminder, the IC50 is the concentration that gives 50% inhibition. A low value points to higher potency. Regarding `COc1cc(/C=C/C(=O)C(C)(C)C(=O)/C=C/c2ccc(OC(=O)OCCNC(=O)[C@@H](N)C(C)C)c(OC)c2)ccc1OC(=O)OCCNC(=O)[C@@H](N)C(C)C` [Compound 2-TFA], the solubility in data set [1] (water, LC-MS) was 376 mg/mL. For the same compound, the “fold increased solubility compared to DMCU” value in data set [1] (water, room temperature) was 20,800 fold and > 10,000 fold. Moreover, the IC50 with A549 was found to be 1990 ± 240 nM; in the data set with NCI-H460, 1690 ± 40 nM; with NCI-H358, 1260 ± 60 nM.
Turning to `COc1cc(/C=C/C(=O)C(C)(C)C(=O)/C=C/c2ccc(O)c(OC)c2)ccc1O` [DMCU, 4,4-Dimethylcurcumin], the “maximum concentration in water” value in data set [1] (room temperature, dilution of 40% MeOH solution with water, precipitate removed, LC-MS) turned out to be 18 ppm. In addition, the “water solubility (in words)” value in data set [1] (water) is “virtually insoluble in water”. Also, the solubility in data set [1] (water, LC-MS) stood at 0.018 mg/mL (≈ 45.4 µM). Further, the concentration for half-maximal inhibition (IC50) with A549 amounted to 2500 ± 30 nM; in the data set on NCI-H460, 2130 ± 160 nM; with NCI-H358, 1620 ± 120 nM.
In turn, `COc1cc(/C=C/C(=O)C(C)(C)C(=O)/C=C/c2ccc(OC(=O)OCCNC(=O)[C@@H](N)C(C)C)c(OC)c2)ccc1O` [Compound 1-TFA] showed a solubility in data set [1] (water, LC-MS) of 250 mg/mL. In addition, the “fold increased solubility compared to DMCU” value in data set [1] (water, room temperature) is 13,700 fold and > 10,000 fold. The IC50 with A549 worked out at 3170 ± 140 nM; in the data set on NCI-H460 it was 1950 ± 160 nM; in the data set with NCI-H358 it was 1920 ± 130 nM.
